Assay results: US6172110A, “Acylated betulin and dihydrobetulin derivatives, preparation thereof and use thereof” (The University of North Carolina at Chapel Hill, priority 1999, dated 2001)
Where two headings read alike, the source gives them in different places.

Columns and labels:
HIV-1 (IIIB isolate) = test: HIV-1 inhibition (p24 antigen ELISA) in infected H9 lymphocytes; type: cell-based; conditions: Human immunodeficiency virus 1, IIIB, Lymphocyte, 96 h; H9 lymphocytes; p24 ELISA Day 4; average of at least two experiments; read-out: Anti-HIV Activity EC50
Protocol: (§1) Aliquot of this cell line were only used in experiments when in log-phase growth. Test samples were first dissolved in dimethyl sulfoxide. The following final drug concentrations were routinely used for screening: 100, 20, 4 and 0.8 μg/ml. For active agents, additional dilutions were prepared for subsequent testing so that an accurate EC50 value (defined below) could be achieved. […] The appropriate amount of virus for a multiplicity of infection (moi) between 0.1 and 0.01 Infectious Units/cell was added to the first aliquot of H9 cells. The other aliquot only received culture medium, and these mock-infected cells were used for toxicity determinations (IC50, defined below). After a 4 h incubation at 37° C. and 5% CO2, both cell populations were washed three times with fresh medium and then added to the appropriate wells of a 24 well-plate containing the various concentrations of the test drug or culture medium (positive infected control/negative drug control). In addition, AZT was also assayed during each experiment as a positive drug control. The plates were incubated at 37° C. and 5% CO2 for 4 days. Cell-free supernatants were collected on Day 4 for use in a p24 antigen ELISA assay. P24 antigen is a core protein of HIV and therefore is an indirect measure of virus present in the supernatants. Toxicity was determined by performing cell counts by a Coulter Counter on the mock-infected H9 cells which had either received culture medium (no toxicity), test sample, or AZT.
Compounds of the present invention were assayed for anti-HIV activity according to the following assay procedures. […] The cell lines were used in experiments only when in the logarithmic phase of growth, whereas uninfected peripheral blood mononuclear cells (PBMCs) were first stimulated with PHA (1 μg/mL) for three days. […] The cell lines and PBMCs were washed thoroughly to remove unadsorbed virions and resuspended at 4×10^5 cells/ml in complete medium or complete medium with 10% v/v interleukin 2 (IL-2) , respectively. One ml. aliquots were placed into wells of 24-well culture plates containing an equal volume of test compounds (diluted in the appropriate culture medium). The toxicity of each compound was assessed by determining the number of compound-exposed uninfected cells that remained after four days at 37° C. and 5% CO2. A p24 antigen ELISA assay was used to determine the level of virus released in the medium of the HIV-infected cultures. The p24 antigen assay used a HIV-1 anti-p24 specific monoclonal antibody as the capture antibody coated onto 96-well plates. […] P24 in the culture medium was quantitated against a standard curve containing known amounts of p24. The effective (EC50) and inhibitory (IC50) concentrations for anti-HIV activity and cytotoxicity, respectively, were determined.

[1] = Cytotoxicity: cell counts of mock-infected H9 cells; type: cell-based; conditions: human; toxic to 50% of mock-infected H9 cells; 4 days; average of at least two experiments; read-out: Cytotoxicity IC50
Protocol: as §1, with “The biological evaluation of HIV-1 inhibition was carried out according to established protocols, (Kashiwada, Y., et al., J Med Chem. 39:1016-1017 (1996); Hashimoto, F., et al., Bioorg. & Med Chem. 5:2133-2143 (1997)). The T cell line, H9, was maintained in continuous culture with complete medium (RPMI 1640 with 10% fetal calf serum supplemented with L-glutamine at 5% CO2 and 37° C.). Aliquot” for “Aliquot”, “achieved. As the test samples were being prepared, an aliquot of the H9 cell line was infected with HIV-1 (IIIB isolate) while another aliquot was mock-infected with complete medium.” for “achieved.”
Compounds of the present invention were assayed for anti-HIV activity according to the following assay procedures. The T cell line, H9, and the promonocytic cell line, U937, were maintained separately in continuous culture with complete medium (RPMI 1640 with 10% fetal calf serum) at 5% CO2 and 37° C. The cell lines were used in experiments only when in the logarithmic phase of growth, whereas uninfected peripheral blood mononuclear cells (PBMCs) were first stimulated with PHA (1 μg/mL) for three days. All cell targets were incubated with HIV-1 (IIIB isolate, TCID50 10^4 IU/ml, at a multiplicity of infection of […] IU/cell) for one hour at 37° C. and 5% CO2. The cell lines and PBMCs were washed thoroughly to remove unadsorbed virions and resuspended at 4×10^5 cells/ml in complete medium or complete medium with 10% v/v interleukin 2 (IL-2) , respectively. One ml. aliquots were placed into wells of 24-well culture plates containing an equal volume of test compounds (diluted in the appropriate culture medium). The toxicity of each compound was assessed by determining the number of compound-exposed uninfected cells that remained after four days at 37° C. and 5% CO2. A p24 antigen ELISA assay was used to determine the level of virus released in the medium of the HIV-infected cultures. The p24 antigen assay used a HIV-1 anti-p24 specific monoclonal antibody as the capture antibody coated onto 96-well plates. Following a sample incubation period, rabbit serum containing antibodies for HIV-1 p24 was used to tag any p24 captured onto the microtiterwell surface. Peroxidase conjugated goat anti-rabbit serum was then used to tag HIV-1 p24 specific rabbit antibodies that had complexed with captured p24. […] The cutoff for the p24 ELISA assay was 12.5 pg/ml. P24 in the culture medium was quantitated against a standard curve containing known amounts of p24. […]

HIV-1 = conditions: H9 lymphocyte cells, Fujioka et al. 1994, cited from earlier work
[2] = read-out: EC50, inhibitory activity against HIV-1 replication

Row | Structure (SMILES) | EC50 (HIV-1 (IIIB isolate)) [µM] | CC50 at 96 h [1] [µM] | EC50 (HIV-1; [2]) [µM] | T.I. (HIV-1) | EC50 (HIV-1; read-out: EC50, anti-HIV activity (unit inferred)) [µM]
1 | C=C(C)[C@@H]1CC[C@]2(C(=O)O)CC[C@]3(C)[C@H](CC[C@@H]4[C@@]5(C)CC[C@H](O)C(C)(C)[C@@H]5CC[C@]43C)[C@@H]12 [Compound 1, betulinic acid, reference compound] | 1.4 | 13 | 1.4 |  | 
2 | CC(C)[C@@H]1CC[C@]2(C(=O)O)CC[C@]3(C)[C@H](CC[C@@H]4[C@@]5(C)CC[C@H](O)C(C)(C)[C@@H]5CC[C@]43C)[C@@H]12 [dihydrobetulinic acid] |  |  |  | 14 | 0.9
3 | CC(=O)[C@@H]1CC[C@]2(C(=O)O)CC[C@]3(C)[C@H](CC[C@@H]4[C@@]5(C)CC[C@H](O)C(C)(C)[C@@H]5CC[C@]43C)[C@@H]12 [platanic acid] |  |  | 6.5 | 14 | 
